Measurements as given in US7744927B2, “Methods of promoting hematopoietic and mesenchymal cell proliferation and differentiation” (University of Southern California, priority 1997, dated 2010).

Columns and labels:
[1] = system: Murine Peritoneal Macrophages; test: Phagocytosis of opsonized yeast by murine peritoneal macrophages; assay type: cell-based, C57B1/6 mice; conditions: for # Macrophages with Yeast, Yeast # 0 / # Macrophages with Yeast, Yeast # 1-3 / # Macrophages with Yeast, Yeast # 4-6 / # Macrophages with Yeast, Yeast # 7-9 / # Yeast/MO / % Ingesting: 4 hours
Experimental: Resident peritoneal macrophages have very little phagocytic activity. Exposure of macrophages to inflammatory or activating agents will increase this macrophage function. Resident peritoneal macrophages were harvested from C57B1/6 mice or Sprague Dawley rats and resuspended at a concentration of 1×10^6 cells/ml in phosphate buffered saline (PBS). Five separate 0.5 ml cell aliquots were placed on a glass coverslip in a 35 mm petri dish. Prior to incubation, either 0.5 ml of PBS, AII, or AII analogues or fragments at between 1-1000 ug/ml final concentration was added to the individual cover slips. The dishes containing the cover slips were then incubated at 37° C. for 4 hours, after which the cover slips were washed 3 to 6 times with PBS. Opsonized yeast particles (Sigma Chemical Co.) (yeast opsonized with adult serum from the same species as that under study) were added to the cover slips and incubated for 2 hours, after which the cover slips were again washed with PBS and inverted onto a glass slide. The number of macrophages that ingested yeast and the number of yeast per macrophage ingested was then determined microscopically. At least 100 macrophages per coverslip were counted. The data from this study are summarized in Tables 3 and 4 and FIGS. 1 and 2.

[2] = system: rat MSC; test: Rat mesenchymal stem cell proliferation in bone marrow culture; assay type: cell-based, Sprague Dawley rats; conditions: 1 to 100 μg/ml, in presence of serum
Experimental: These studies were conducted to determine the effect that AII would have on the proliferation of MSC. Bone marrow cells were harvested from the femur and tibia of female Sprague Dawley rats by flushing the bones with Dulbecco's Minimal Essential Medium-High Glucose (“DMEM-HG”) with a syringe and an 18 gauge needle. These cells were cultured in 24 well plates at 5×10^3 cells/mm^2 in DMEM-HG containing selected lots of fetal calf serum (FCS) and antibiotics (complete medium) at 37° C. incubator containing 5% CO2 in air. Twenty-four hours after the initiation of the cultures the medium and nonadherent cells were aspirated and fresh medium was added. To each of these several wells, complete medium with (1 to 100 μg/ml) or without AII was added. The migration of cells from the clones and their proliferation was followed by microscopic examination. Every 4 days the old medium was removed and fresh medium was added to the cultures. These studies were conducted to determine the effect that inclusion of AII analogues and fragments in the cell culture of MSC would have on the proliferation of these cells. Bone marrow cells were harvested from the femur and tibia of female Sprague Dawley rats by flushing the bones with Dulbecco's Minimal Essential Medium-High Glucose (“DMEM-HG”) with a syringe and an 18 gauge needle. […]

[3] = system: cells that express alkaline phosphatase (rat bone marrow MSC); test: Alkaline phosphatase expression by MSC in osteogenic medium; assay type: cell-based, Sprague Dawley rats; conditions: osteogenic medium 4 days, absorbance at 405 nm
Source text: Mesenchymal stem cells isolated from bone marrow and grown under appropriate conditions can express characteristics of multiple cell types, including cells involved in the generation of bone, cartilage, muscle and tendons. Osteogenic cells (cells that can form bone tissue) express the enzyme alkaline phosphatase when cultured in medium that drives them toward their osteogenic differentiation.
Bone marrow from female Sprague Dawley rats were harvested by flushing the femur with medium. The cells were placed in culture dishes 9 […], allowed to adhere overnight, and then placed in DMEM-LG medium containing antibiotics and 10% fetal calf serum together with varying concentrations of AII. At various times after culture initiation, the cells were washed with Tyrode's buffer and placed in osteogenic medium (DMEM-LG containing 10% fetal calf serum, 100 nM dexamethasone and 0.05 mM ascorbic acid) for 4 days prior to assessment of the level of alkaline phosphatase activity per well. Briefly, the wells were washed with Tyrode's buffer and 1 ml alkaline phosphatase substrate solution (50 mM glycine, pH 10.5, containing 1 mM magnesium chloride and 2.5 mM p-nitrophenyl phosphate) to each well. […] The absorbance of the resultant mixture at 405 nm was then determined via spectroscopy. The level of alkaline phosphatase activity is expressed as the level of absorbance per culture dish.

## Asp-Arg-Val-Tyr-Ile-His-Pro-Phe [AII, known pressor agent, commercially available]
[1]; 10 μg/ml or greater
  phagocytic capability of peritoneal macrophages: tremendously increased
[1]; AII 1 μg/ml
  # Macrophages with Yeast, Yeast # 0: 100
  # Macrophages with Yeast, Yeast # 1-3: 1
  # Macrophages with Yeast, Yeast # 4-6: 0
  # Macrophages with Yeast, Yeast # 7-9: 0
  # Yeast/MO: 0.01
  % Ingesting: 1%
[1]; AII 10 μg/ml
  # Macrophages with Yeast, Yeast # 0: 100
  # Macrophages with Yeast, Yeast # 1-3: 3
  # Macrophages with Yeast, Yeast # 4-6: 4
  # Macrophages with Yeast, Yeast # 7-9: 0
  # Yeast/MO: 0.24
  % Ingesting: 6.5%
[1]; AII 100 μg/ml
  # Macrophages with Yeast, Yeast # 0: 100
  # Macrophages with Yeast, Yeast # 1-3: 10
  # Macrophages with Yeast, Yeast # 4-6: 10
  # Macrophages with Yeast, Yeast # 7-9: 0
  # Yeast/MO: 0.58
[1]; AII 1000 μg/ml (highest concentration)
  # Yeast/MO: 1
[1]; AII 1000 μg/ml
  # Macrophages with Yeast, Yeast # 0: 100
  # Macrophages with Yeast, Yeast # 1-3: 20
  # Macrophages with Yeast, Yeast # 4-6: 20
  # Macrophages with Yeast, Yeast # 7-9: 0
[2]
  number of sites from which the MSC were migrating (CFU): significantly increased
  size (number of cells) of the colonies formed: significantly increased
[3]
  proliferation of cells that express alkaline phosphatase: can accelerate the proliferation of cells that express alkaline phosphatase
